From patent US4988828A, “Phenoxypropyl derivatives” (Fujirebio Kabushiki Kaisha, priority 1987, dated 1991)

What was measured:
stomach = assay: Gastric mucosal protecting activity (ulcer caused by 0.4N-HCl+50% ethanol); assay type: in vivo, rat (male Donryu); settings: 30 minutes before necrotizing substance
Protocol: Male Donryu rats (150 to 250 g) which had been caused to fast for 24 hours were used. The test compound was administered in a dose of 10 mg/kg. p.o., and 30 minutes later, a necrotizing substance (0.4N-HCl+50% ethanol) was administered orally in a dose of 5 ml/kg. One hour after the administration of the necrotizing substance, the stomach was dissected out and fixed with formalin. The area of ulcer which occurred was measured, and by comparison with a control group, the percent inhibition of the test compound was determined.

histamine H2 receptor = biological target: T1, histamine H2 receptor (Cavia porcellus, UniProt P47747); assay: Histamine H2 antagonizing activity (isolated guinea pig right atrium, histamine dose-response); parameters: species or system guinea pig (Hartley-strain); settings: 32° C., test compound 1×10^-6, 1×10^-7 M, 10 min before histamine, Van Rossum method, read-out: pA2 (converted)
T1 construct: The right atrium was isolated in the Krebs-Henselite solution; from tissue; host or cells: isolated right atrium of male Hartley-strain guinea pigs
T1 sequence (P47747 whole entry): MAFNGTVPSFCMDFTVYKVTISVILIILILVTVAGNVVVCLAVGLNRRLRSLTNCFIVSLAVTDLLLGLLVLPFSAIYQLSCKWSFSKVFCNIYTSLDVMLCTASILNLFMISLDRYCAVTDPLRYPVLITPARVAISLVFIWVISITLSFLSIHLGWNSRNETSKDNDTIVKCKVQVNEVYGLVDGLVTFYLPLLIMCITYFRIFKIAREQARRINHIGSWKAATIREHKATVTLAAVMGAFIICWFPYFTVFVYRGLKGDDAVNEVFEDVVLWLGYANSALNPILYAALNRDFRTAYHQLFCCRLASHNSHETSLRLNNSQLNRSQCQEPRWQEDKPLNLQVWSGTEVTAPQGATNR
Protocol: Hartley-strain guinea pigs (male, weight 300 to 350 g) were killed by a blow on the head, and the heart was extracted. The right atrium was isolated in the Krebs-Henselite solution through which a mixed gas (O2 95%, CO2 5%) was circulated. The right atrium was suspended in an organ bath (30 ml) filled with the Krebs-Henselite solution kept at 32° C. The mixed gas was circulated through the organ bath, and a diastolic tension of 1 g was maintained. Contraction of the right atrium was recorded by a force-displacement transducer, and the heart rate was counted by a heart rate meter interlocked with the transducer.
Histamine (used in the form of dihydrochloride) was added cumulatively to the organ bath in a concentration of 1×10^-8 M to 3×10^-5 M. Thus, the dose-response curve of histamine was obtained. The inside of the organ bath was washed several times, and the test compound (1×10^-6, 1×10^-7 M) was added to the organ bath. Ten minutes later, the dose-response curve of histamine in the presence of the test compound was obtained.
The pA2 value of the test compound was determined from the first histamine dose-response curve and the histamine dose-response curve in the presence of the test compound by the method of J. M. Van Rossum (Arch. Int. Pharmacodyn. Ther., 143-299, 1963).

SMILES | Percent inhibition (area of ulcer, vs control group) (stomach; 10 mg/kg p.o.) | Kb (histamine H2 receptor) | Percent inhibition (area of ulcer, vs control group) (stomach; 30 mg/kg p.o.)
O=C(C[S+]([O-])Cc1ccco1)NCCCOc1cccc(CN2CCCCC2)c1 (centres unmarked) [Example 13, N-{3-[3-(piperidinomethyl)phenoxy]propyl}-2-(furfurylsulfinyl)acetamide] | 72% | 0.0794 µM | 
CN/C(=N/CCSCc1nc[nH]c1C)NC#N [cimetidine, reference compound] | No inhibition was observed |  | 11%
O=C(CSCc1ccco1)NCCCOc1cccc(CN2CCCCC2)c1 [Example 12, N-(3-[3-(piperidinomethyl)phenoxy]propyl)-2-(furfurylthio)acetamide] | 63% |  | 
